# Test results taken from patent US9944645B2, “Imidazotriazines and imidazopyrimidines as kinase inhibitors” (Incyte Holdings Corporation, priority 2006, dated 2018).
# Biological target: c-Met kinase (h-Met; histidine-tagged c-Met catalytic domain fusion protein) (Homo sapiens (Human), UniProt P08581)
# Assay: In Vitro c-Met Kinase Enzyme Assays
# Type: biochemical
# Conditions: phosphorylation of poly Glu-Tyr, 5 μM ATP, 25 minutes at 30° C.
# Summary of the method: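 His-tagged c-Met catalytic domain reacted 25 min at 30° C, within the linear initial-rate range. Phosphotyrosine detected by ELISA with peroxidase-labeled anti-phospho-tyrosine antibody and TMB, OD read at 450 nm (540 nm correction); IC50 from curve fit.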
# Sequence of c-Met kinase (h-Met; histidine-tagged c-Met catalytic domain fusion protein) (P08581 1078-1345): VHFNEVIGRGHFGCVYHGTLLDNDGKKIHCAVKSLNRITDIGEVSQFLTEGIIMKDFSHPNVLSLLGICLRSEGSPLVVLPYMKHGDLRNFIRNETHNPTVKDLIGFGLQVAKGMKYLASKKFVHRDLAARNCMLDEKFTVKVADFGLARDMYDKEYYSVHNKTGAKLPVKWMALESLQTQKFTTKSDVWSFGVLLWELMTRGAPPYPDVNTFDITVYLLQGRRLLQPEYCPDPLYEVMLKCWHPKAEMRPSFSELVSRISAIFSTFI
row,IC50,Compound
1,< 500 nM,"COCC1(NC(=O)c2ccc(-c3cnc4ncc(C5(c6ccc7ncccc7c6)CC5)n4n3)cc2)CC1 [Example 115, N-[1-(Methoxymethyl)cyclopropyl]-4-[7-(1-quinolin-6-ylcyclopropyl)imidazo[1,2-b][1,2,4]triazin-2-yl]benzamide]"
2,< 500 nM,"COCC1(NC(=O)c2ccc(-c3cnc4ncc(C5(c6ccc7ncccc7c6)CC5)n4n3)cc2)CCC1 [Example 116, N-[1-(Methoxymethyl)cyclobutyl]-4-[7-(1-quinolin-6-ylcyclopropyl)imidazo[1,2-b][1,2,4]triazin-2-yl]benzamide]"
3,< 500 nM,COC[C@@H](NC(=O)c1ccc(-c2cnc3ncc(C4(c5ccc6ncccc6c5)CC4)n3n2)cc1)C(C)C [Example 117]
4,< 500 nM,COCC1(NC(=O)c2ccc(-c3cnc4ncc(C5(c6ccc7ncccc7c6)CC5)n4n3)cc2)CCOCC1 [Example 118]
5,< 500 nM,"O=C(Nc1nccs1)c1ccc(-c2cnc3ncc(C4(c5ccc6ncccc6c5)CC4)n3n2)cc1 [Example 119, 4-[7-(1-Quinolin-6-ylcyclopropyl)imidazo[1,2-b][1,2,4]triazin-2-yl]-N-1,3-thiazol-2-ylbenzamide]"
6,< 500 nM,C[C@H](COC(=O)N(C)C)NC(=O)c1ccc(-c2cnc3ncc(C4(c5ccc6ncccc6c5)CC4)n3n2)cc1 [Example 121]
7,< 500 nM,"CC(c1ccc2ncccc2c1)c1cnc2ncc(-c3ccc(C(=O)N[C@@H](C(=O)N(C)C)C(C)C)cc3)nn12 (stereo partly drawn) [Example 122, N-{(1R)-1-[(Dimethylamino)carbonyl]-2-methylpropyl}-4-[7-(1-quinolin-6-ylethyl)imidazo[1,2-b][1,2,4]triazin-2-yl]benzamide]"
8,< 500 nM,"O=C(NC1CC1)c1ccc(-c2cnc3ncc(Cc4ccc5ncccc5c4)n3n2)cc1F [Example 123, N-Cyclopropyl-2-fluoro-4-[7-(quinolin-6-ylmethyl)imidazo[1,2-b][1,2,4]triazin-2-yl]benzamide]"
9,< 500 nM,"COCC1(NC(=O)c2ccc(-c3cnc4ncc(Cc5ccc6ncccc6c5)n4n3)cc2F)CC1 [Example 124, 2-Fluoro-N-[1-(methoxymethyl)cyclopropyl]-4-[7-(quinolin-6-ylmethyl)imidazo[1,2-b][1,2,4]triazin-2-yl]benzamide]"
10,< 500 nM,"O=C(NC1CCOCC1)c1ccc(-c2cnc3ncc(Cc4ccc5ncccc5c4)n3n2)cc1F [Example 125, 2-Fluoro-4-[7-(quinolin-6-ylmethyl)imidazo[1,2-b][1,2,4]triazin-2-yl]-N-(tetrahydro-2H-pyran-4-yl)benzamide]"
11,< 500 nM,"O=C(c1ccc(-c2cnc3ncc(Cc4ccc5ncccc5c4)n3n2)cc1F)N1CC[C@@H](O)C1 [Example 126, (3R)-1-{2-Fluoro-4-[7-(quinolin-6-ylmethyl)imidazo[1,2-b][1,2,4]triazin-2-yl]benzoyl}pyrrolidin-3-ol]"
12,< 500 nM,"NC(=O)c1ccc(-c2cnc3ncc(Cc4ccc5ncccc5c4)n3n2)cc1F [Example 127, 2-Fluoro-4-[7-(quinolin-6-ylmethyl)imidazo[1,2-b][1,2,4]triazin-2-yl]benzamide]"
13,< 500 nM,"O=C(N[C@H]1CC[C@H](O)CC1)c1ccc(-c2cnc3ncc(Cc4ccc5ncccc5c4)n3n2)cc1F [Example 128, 2-Fluoro-N-(trans-4-hydroxycyclohexyl)-4-[7-(quinolin-6-ylmethyl)imidazo[1,2-b][1,2,4]triazin-2-yl]benzamide]"
14,< 500 nM,"Fc1cc(-c2cnc3ncc(Cc4ccc5ncccc5c4)n3n2)ccc1-n1ccnc1 [Example 129, 6-{2-[3-Fluoro-4-(1H-imidazol-1-yl)phenyl]imidazo[1,2-b][1,2,4]triazin-7-ylmethyl}quinoline]"
15,< 500 nM,"O=C1OCCN1c1ccc(-c2cnc3ncc(Cc4ccc5ncccc5c4)n3n2)cc1F [Example 130, 3-{2-Fluoro-4-[7-(quinolin-6-ylmethyl)imidazo[1,2-b][1,2,4]triazin-2-yl]phenyl}-1,3-oxazolidin-2-one]"
16,< 500 nM,"CNC(=O)[C@@H](NC(=O)c1ccc(-c2cnc3ncc(Cc4ccc5ncccc5c4)n3n2)cc1F)C(C)(C)C [Example 131, N-(1S)-2,2-Dimethyl-1-[(methylamino)carbonyl]propyl-2-fluoro-4-[7-(quinolin-6-ylmethyl)imidazo[1,2-b][1,2,4]triazin-2-yl]benzamide]"
17,< 500 nM,"CN(C)C(=O)[C@@H](NC(=O)c1ccc(-c2cnc3ncc(Cc4ccc5ncccc5c4)n3n2)cc1F)C(C)(C)C [Example 132, N-(1S)-1-[(Dimethylamino)carbonyl]-2,2-dimethylpropyl-2-fluoro-4-[7-(quinolin-6-ylmethyl)imidazo[1,2-b][1,2,4]triazin-2-yl]benzamide]"
18,< 500 nM,"CC(C)(C)[C@H](NC(=O)c1ccc(-c2cnc3ncc(Cc4ccc5ncccc5c4)n3n2)cc1F)C(=O)N1CCC1 [Example 133, N-[(1S)-1-(Azetidin-1-ylcarbonyl)-2,2-dimethylpropyl]-2-fluoro-4-[7-(quinolin-6-ylmethyl)imidazo[1,2-b][1,2,4]triazin-2-yl]benzamide]"
19,< 500 nM,"CC(C)C[C@H](NC(=O)c1ccc(-c2cnc3ncc(Cc4ccc5ncccc5c4)n3n2)cc1F)C(=O)N(C)C [Example 134, N-{(1S)-1-[(Dimethylamino)carbonyl]-3-methylbutyl}-2-fluoro-4-[7-(quinolin-6-ylmethyl)imidazo[1,2-b][1,2,4]triazin-2-yl]benzamide]"
20,< 500 nM,"CNC(=O)[C@@H](CC(C)C)NC(=O)c1ccc(-c2cnc3ncc(Cc4ccc5ncccc5c4)n3n2)cc1F [Example 135, 2-Fluoro-N-{(1R)-3-methyl-1-[(methylamino)carbonyl]butyl}-4-[7-(quinolin-6-ylmethyl)imidazo[1,2-b][1,2,4]triazin-2-yl]benzamide]"

# Further lines, the compound ahead of its results:
row,Compound,IC50
1,"O=C(N[C@H]1CC[C@H](O)CC1)c1ccc(-c2cnc3ncc(C4(c5ccc6ncccc6c5)CC4)n3n2)cc1F [Example 100, 2-Fluoro-N-(trans-4-hydroxycyclohexyl)-4-[7-(1-quinolin-6-ylcyclopropyl)imidazo[1,2-b][1,2,4]triazin-2-yl]benzamide]",< 500 nM
2,"O=C(NC1CC1)c1ccc(-c2cnc3ncc(C4(c5ccc6ncccc6c5)CC4)n3n2)cc1F [Example 101, N-Cyclopropyl-2-fluoro-4-[7-(1-quinolin-6-ylcyclopropyl)imidazo[1,2-b][1,2,4]triazin-2-yl]benzamide]",< 500 nM
3,"CNC(=O)c1ccc(-c2cnc3ncc(C4(c5ccc6ncccc6c5)CC4)n3n2)cc1F [Example 102, 2-Fluoro-N-methyl-4-[7-(1-quinolin-6-ylcyclopropyl)imidazo[1,2-b][1,2,4]triazin-2-yl]benzamide]",< 500 nM
4,"COCC1(NC(=O)c2ccc(-c3cnc4ncc(C5(c6ccc7ncccc7c6)CC5)n4n3)cc2F)CC1 [Example 103, 2-Fluoro-N-[1-(methoxymethyl)cyclopropyl]-4-[7-(1-quinolin-6-ylcyclopropyl)imidazo[1,2-b][1,2,4]triazin-2-yl]benzamide]",< 500 nM
5,"NC(=O)c1ccc(-c2cnc3ncc(C4(c5ccc6ncccc6c5)CC4)n3n2)cc1F [Example 104, 2-Fluoro-4-(7-(1-(quinolin-6-yl)cyclopropyl)imidazo[1,2-b][1,2,4]triazin-2-yl)benzamide]",< 500 nM
6,"O=C(NCC1CCCO1)c1ccc(-c2cnc3ncc(C4(c5ccc6ncccc6c5)CC4)n3n2)cc1 (centres unmarked) [Example 105, 4-[7-(1-Quinolin-6-ylcyclopropyl)imidazo[1,2-b][1,2,4]triazin-2-yl]-N-(tetrahydrofuran-2-ylmethyl)benzamide]",< 500 nM
7,"O=C(NCc1ccccn1)c1ccc(-c2cnc3ncc(C4(c5ccc6ncccc6c5)CC4)n3n2)cc1 [Example 106, N-(Pyridin-2-ylmethyl)-4-[7-(1-quinolin-6-ylcyclopropyl)imidazo[1,2-b][1,2,4]triazin-2-yl]benzamide]",< 500 nM
8,O=C(NC1CC1)c1ccc(-c2cnc3ncc(C4(c5ccc6ncccc6c5)CC4)n3n2)cc1 [Example 107],< 500 nM
9,"O=C(NC1CCC1)c1ccc(-c2cnc3ncc(C4(c5ccc6ncccc6c5)CC4)n3n2)cc1 [Example 108, N-Cyclobutyl-4-[7-(1-quinolin-6-ylcyclopropyl)imidazo[1,2-b][1,2,4]triazin-2-yl]benzamide]",< 500 nM
10,"O=C(NC1(c2ccccn2)CC1)c1ccc(-c2cnc3ncc(C4(c5ccc6ncccc6c5)CC4)n3n2)cc1 [Example 109, N-(1-Pyridin-2-ylcyclopropyl)-4-[7-(1-quinolin-6-ylcyclopropyl)imidazo[1,2-b][1,2,4]triazin-2-yl]benzamide]",< 500 nM
11,"CC(C)(CO)NC(=O)c1ccc(-c2cnc3ncc(C4(c5ccc6ncccc6c5)CC4)n3n2)cc1 [Example 110, N-(2-Hydroxy-1,1-dimethylethyl)-4-[7-(1-quinolin-6-ylcyclopropyl)imidazo[1,2-b][1,2,4]triazin-2-yl]benzamide]",< 500 nM
12,"O=C(N[C@H](CO)Cc1ccccc1)c1ccc(-c2cnc3ncc(C4(c5ccc6ncccc6c5)CC4)n3n2)cc1 [Example 111, N-[(1S)-1-Benzyl-2-hydroxyethyl]-4-[7-(1-quinolin-6-ylcyclopropyl)imidazo[1,2-b][1,2,4]triazin-2-yl]benzamide]",< 500 nM
13,"O=C(c1ccc(-c2cnc3ncc(C4(c5ccc6ncccc6c5)CC4)n3n2)cc1)N1CC[C@@H](O)C1 [Example 112, (3R)-1-{4-[7-(1-quinolin-6-ylcyclopropyl)imidazo[1,2-b][1,2,4]triazin-2-yl]benzoyl}pyrrolidin-3-ol]",< 500 nM
14,"O=C(NC1CCOCC1)c1ccc(-c2cnc3ncc(C4(c5ccc6ncccc6c5)CC4)n3n2)cc1 [Example 113, 4-(7-(1-(Quinolin-6-yl)cyclopropyl)imidazo[1,2-b][1,2,4]triazin-2-yl)-N-(tetrahydro-2H-pyran-4-yl)benzamide]",< 500 nM
15,"CN(C(=O)c1ccc(-c2cnc3ncc(C4(c5ccc6ncccc6c5)CC4)n3n2)cc1)C1CC1 [Example 114, N-Cyclopropyl-N-methyl-4-[7-(1-quinolin-6-ylcyclopropyl)imidazo[1,2-b][1,2,4]triazin-2-yl]benzamide]",< 500 nM
